Source: US5750782A, “Nitroaniline derivatives and their use as anti-tumour agents” (priority 1996, dated 1998)

What was measured:
AA8 = test: Growth inhibition (IC50), AA8 cells, aerobic; format: cell-based; details: 18 h exposure
Method: (§1) Growth inhibition studies were performed as described in detail elsewhere (W.R. Wilson, R.F. Anderson and W.A Denny. J Med. Chem., 1989, 32, 23; G.J. Finlay, B.C. Baguley and W.R. Wilson. Anal Biochem., 1984, 139, 172.), using 200 viable AA8 or 300 viable UV4 cells plus 5000 lethally-irradiated AA8 feeder cells per well in 96-well tissue culture dishes. AA8 and UV4 cells were maintained in logarithmic-phase growth in […] tissue culture flasks with subculture twice weekly by trypsinization. The growth medium was antibiotic-free α-MEM with 10% v/v heat-inactivated ([…], 40 min) fetal calf serum. Doubling times were approximately 14h for AA8 and 15h for UV4 cells.

UV4 cells = test: Clonogenic assay, UV4 cells (CT10), aerobic and hypoxic; format: cell-based; details: for CT10 ratio (air/N2): UV4 cells, aerobic CT10/hypoxic CT10; for CT10 (UV4): air, concentration x time to reduce UV4 cell survival to 10% of control
Text: The product (in μM-hr) of the drug concentration times the exposure time to reduce cell survival to 10% of control values in the clonogenic assay.
Ratio of CT10 values after exposure of UV4 cells as detailed above under either aerobic (air) or hypoxic (N2) conditions (=aerobic CT10 /hypoxic CT10).

AA8 and UV4 cell lines = test: Ratio of IC50 values against AA8 and UV4 cell lines (HFair); format: cell-based; details: 18 h exposure
Method: as §1
Ratio of IC50 values for a compound after exposure as detailed above against AA8 and UV4 cell lines (HF=IC50 (AA8)/IC50 (UV4)).

UV4 cell line = test: Ratio of IC50 values against UV4 cell line in presence and absence of E. coli nitroreductase enzyme NTR-2; format: cell-based; details: air, ratio of IC50 in presence and absence of E. coli nitroreductase NTR-2, 1080 min
Method: as §1
Ratio of IC50 values for a compound after exposure as detailed above against the UV4 cell line in the presence and absence of the E. coli nitroreductase enzyme NTR-2.

UV4 = test: Growth inhibition (IC50), UV4 cells, aerobic; format: cell-based; details: air, 18 h exposure
Method: as §1

V79 cells = details: +Nitroreductase alone (2 μg/ml); 2 h, 37° C
Method: The nitroreductase concentration was 2 μg/ml and NADH was used as a co-factor. The initial cell density was 2×10^5 /mL.

CN(C)C(=O)c1cc(N(CCCl)CCCl)c([N+](=O)[O-])cc1[N+](=O)[O-] [Compound 9, N,N-dimethyl [N,N-bis(2-chloroethyl)amino]-2,4-dinitrobenzainide]
IC50 (AA8; air): 310 µM
CT10 ratio (air/N2) (UV4 cells): > 20
CT10 (UV4) (UV4 cells): > 3500 μM-h
HF (air) = IC50 (AA8)/IC50 (UV4) (AA8 and UV4 cell lines): 1.4

O=C(O)CCNC(=O)c1cc(N(CCCl)CCCl)c([N+](=O)[O-])cc1[N+](=O)[O-] [Compound 15, N-(2-carboxyethyl) 5-[N,N-bis(2-chloroethyl)amino]-2,4-dinitrobenzamide]
IC50 (AA8; air): 6100 µM
CT10 ratio (air/N2) (UV4 cells): 2
CT10 (UV4) (UV4 cells): 14000 μM-h
HF (air) = IC50 (AA8)/IC50 (UV4) (AA8 and UV4 cell lines): 1.1

NC(=O)c1cc(N(CCBr)CCBr)c([N+](=O)[O-])cc1[N+](=O)[O-] [Compound 2, 5-[N,N-bis(2-bromoethyl)amino]-2,4-dinitrobenzamide]
HF (NR-2) (UV4 cell line): 32.3
IC50 (UV4): 10.9 µM
IC50 (AA8; air): 57 µM
CT10 ratio (air/N2) (UV4 cells): 20
CT10 (UV4) (UV4 cells): 160 μM-h
HF (air) = IC50 (AA8)/IC50 (UV4) (AA8 and UV4 cell lines): 7.5

NC(=O)c1cc([N+](=O)[O-])c(N(CCCl)CCCl)c([N+](=O)[O-])c1 [Compound 23, 4-[N,N-bis(2-chloroethyl)amino]-3,5-dinitrobenzamide]
IC50 (AA8; air): 97 µM
CT10 ratio (air/N2) (UV4 cells): > 1
CT10 (UV4) (UV4 cells): > 450 μM-h
HF (air) = IC50 (AA8)/IC50 (UV4) (AA8 and UV4 cell lines): 1.4

O=C(O)c1cc(N(CCCl)CCCl)c([N+](=O)[O-])cc1[N+](=O)[O-] [Compound 6, 5-[N,N-bis(2-chloroethyl)amino]-2,4-dinitrobenzoicacid]
HF (NR-2) (UV4 cell line): 0.76
IC50 (UV4): 317 µM
IC50 (AA8; air): 10600 µM
CT10 ratio (air/N2) (UV4 cells): > 2
CT10 (UV4) (UV4 cells): > 30000 μM-h
HF (air) = IC50 (AA8)/IC50 (UV4) (AA8 and UV4 cell lines): 1.5

CN(C)CCNC(=O)c1cc([N+](=O)[O-])c(N(CCCl)CCCl)c([N+](=O)[O-])c1 [Compound 24, N-(N,N-dimethylaminoethyl) 4-[N,N-bis(2-chloroethyl)amino]-3,5-dinitrobenzamide]
IC50 (AA8; air): 62 µM
CT10 ratio (air/N2) (UV4 cells): > 1
CT10 (UV4) (UV4 cells): > 273 μM-h
HF (air) = IC50 (AA8)/IC50 (UV4) (AA8 and UV4 cell lines): 2.0

CN(C)CCNC(=O)c1cc([N+](=O)[O-])cc([N+](=O)[O-])c1N(CCCl)CCCl [Compound 20, N-(N,N-dimethylaminoethyl) 2-[N,N-bis(2-chloroethyl)amino]-3,5-dinitrobenzamide]
IC50 (AA8; air): 150 µM
CT10 ratio (air/N2) (UV4 cells): 36
CT10 (UV4) (UV4 cells): 1200 μM-h
HF (air) = IC50 (AA8)/IC50 (UV4) (AA8 and UV4 cell lines): 14

O=C(NCC(O)CO)c1cc(N(CCCl)CCCl)c([N+](=O)[O-])cc1[N+](=O)[O-] (centres unmarked) [Compound 17, N-(2,3-dihydroxypropyl)5-[N,N-bis(2-chloroethyl)amino]-2,4-dinitrobenzarnide]
IC50 (AA8; air): 1790 µM
CT10 ratio (air/N2) (UV4 cells): 14
CT10 (UV4) (UV4 cells): 3340 μM-h
HF (air) = IC50 (AA8)/IC50 (UV4) (AA8 and UV4 cell lines): 3.2

NC(=O)c1cc(N(CCI)CCI)c([N+](=O)[O-])cc1[N+](=O)[O-] [Compound 3, 5-[N,N-bis(2-iodoethyl)amino]-2,4-dinitrobenzamide]
HF (NR-2) (UV4 cell line): 73.8
IC50 (UV4): 15 µM
IC50 (AA8; air): 34 µM
CT10 ratio (air/N2) (UV4 cells): 42
CT10 (UV4) (UV4 cells): 170 μM-h
HF (air) = IC50 (AA8)/IC50 (UV4) (AA8 and UV4 cell lines): 2.6

CS(=O)(=O)OCCN(CCOS(C)(=O)=O)c1cc(C(N)=O)c([N+](=O)[O-])cc1[N+](=O)[O-] [Compound 4, 5-[N,N-bis(2-methanesulfonoxyethyl)amino]-2,4-dinitrobenzamide]
HF (NR-2) (UV4 cell line): 10.0
IC50 (UV4; Cricetulus griseus): 99 µM
IC50 (AA8; Cricetulus griseus, CHO-AA8, air): > 200 µM
CT10 ratio (air/N2) (UV4 cells): 17
CT10 (UV4) (UV4 cells): 1200 μM-h

N#Cc1cc(N(CCCl)CCCl)c([N+](=O)[O-])cc1[N+](=O)[O-] [Compound 7, 5-[N,N-bis(2-chloroethyl)aminol]-2,4-dinitrobenzonitrile]
HF (NR-2) (UV4 cell line): 9.2
IC50 (UV4): 2.3 µM
IC50 (AA8; air): 24 µM
CT10 ratio (air/N2) (UV4 cells): 8.5
CT10 (UV4) (UV4 cells): 86 μM-h
HF (air) = IC50 (AA8)/IC50 (UV4) (AA8 and UV4 cell lines): 6.8

NC(=O)c1c([N+](=O)[O-])ccc(N(CCCl)CCCl)c1[N+](=O)[O-] [Compound 21, 3-[N,N-bis(2-chloroethyl)amino]-2,6-dinitrobenzamide]
IC50 (AA8; air): > 240 µM
CT10 ratio (air/N2) (UV4 cells): > 3
CT10 (UV4) (UV4 cells): > 300 μM-h
HF (air) = IC50 (AA8)/IC50 (UV4) (AA8 and UV4 cell lines): > 2

C[N+](C)([O-])CCNC(=O)c1cc(N(CCCl)CCCl)c([N+](=O)[O-])cc1[N+](=O)[O-] [Compound 14, N-(N^1,N^1-dimethylaminoethyl) [N,N-bis(2-chloroethyl)amino]-2,4-dinitrobenzamide N^1-oxide]
IC50 (AA8; air): 7300 µM
CT10 ratio (air/N2) (UV4 cells): < 10
CT10 (UV4) (UV4 cells): < 14400 μM-h
HF (air) = IC50 (AA8)/IC50 (UV4) (AA8 and UV4 cell lines): 1.7

O=C(NCCN1CCOCC1)c1cc(N(CCCl)CCCl)c([N+](=O)[O-])cc1[N+](=O)[O-] [Compound 12, N-[2-(morpholino)ethyl][N,N-bis(2-chloroethyl)amino]-2,4-dinitrobenzainide]
IC50 (AA8; air): 920 µM
CT10 ratio (air/N2) (UV4 cells): 45
CT10 (UV4) (UV4 cells): 3700 μM-h
HF (air) = IC50 (AA8)/IC50 (UV4) (AA8 and UV4 cell lines): 3.0

NC(=O)c1cc([N+](=O)[O-])cc([N+](=O)[O-])c1N(CCCl)CCCl [Compound 19, 2-[N,N-bis(2-chloroethyl)amino]-3,5-dinitrobenzamide]
IC50 (AA8; air): > 100 µM
CT10 ratio (air/N2) (UV4 cells): > 5
CT10 (UV4) (UV4 cells): > 300 μM-h
HF (air) = IC50 (AA8)/IC50 (UV4) (AA8 and UV4 cell lines): ca. 3

NC(=S)c1cc(N(CCCl)CCCl)c([N+](=O)[O-])cc1[N+](=O)[O-] [Compound 13, 5-[N,N-bis(2-chloroethyl)amino]-2,4-dinitrothiobenzamide]
IC50 (AA8; air): > 25 µM
CT10 ratio (air/N2) (UV4 cells): > 3
CT10 (UV4) (UV4 cells): > 60 μM-h
HF (air) = IC50 (AA8)/IC50 (UV4) (AA8 and UV4 cell lines): > 2

O=C(c1cc(N(CCCl)CCCl)c([N+](=O)[O-])cc1[N+](=O)[O-])N1CCOCC1 [Compound 10, N-morpholino [N,N-bis(2-chloroethyl)amino]-2,4-dinitrobenzamiide]
IC50 (AA8; air): 264 µM
CT10 ratio (air/N2) (UV4 cells): 1.6
CT10 (UV4) (UV4 cells): 156 μM-h
HF (air) = IC50 (AA8)/IC50 (UV4) (AA8 and UV4 cell lines): 23

NS(=O)(=O)c1cc(N(CCCl)CCCl)c([N+](=O)[O-])cc1[N+](=O)[O-] [Compound 18, 5-[N,N-bis(2-chloroethyl)amino]-2,4-dinitrobenzenesulfonamide]
IC50 (AA8; air): 3 µM

CN(C)CCNC(=O)c1c([N+](=O)[O-])ccc(N(CCCl)CCCl)c1[N+](=O)[O-] [Compound 22, N-(N,N-dimethylaminoethyl) 3-[N,N-bis(2-chloroethyl)amino]-2,6-dinitrobenzamide]
IC50 (AA8; air): 426 µM
CT10 ratio (air/N2) (UV4 cells): 130
CT10 (UV4) (UV4 cells): 3600 μM-h
HF (air) = IC50 (AA8)/IC50 (UV4) (AA8 and UV4 cell lines): 3.2

B1: Nitroreductase: E. coli nitroreductase (protein, UniProt P38489 1-217, looked up)
Oxygen-insensitive NAD(P)H …: MDIISVALKRHSTKAFDASKKLTPEQAEQIKTLLQYSPSSTNSQPWHFIVASTEEGKARVAKSAAGNYVFNERKMLDASHVVVFCAKTAMDDVWLKLVVDQEDADGRFATPEAKAANDKGRKFFADMHRKDLHDDAEWMAKQVYLNVGNFLLGVAALGLDAVPIEGFDAAILDAEFGLKEKGYTSLVVVPVGHHSVEDFNATLPKSRLPQNITLTEV
% SURVIVAL (V79 cells): 94%
